Reference: ChEMBL document CHEMBL3885881, “DrugMatrix”

Organism: Rattus norvegicus
Test: DrugMatrix - Regimen: Daily Repeat
Type: toxicity, organism-based, Sprague-Dawley
Design: regimen Daily Repeat, gender Male, age 6-8 weeks
Conditions: in vivo, po, route oral GAVAGE, vehicle 100 % WATER; for ABSOLUTE BASOPHIL / ABSOLUTE EOSINOPHIL / ABSOLUTE LYMPHOCYTE / ABSOLUTE MONOCYTE / ABSOLUTE SEGMENTED NEUTROPHIL / BASOPHIL / EOSINOPHIL / ERYTHROCYTE COUNT / HEMATOCRIT / HEMOGLOBIN / LEUKOCYTE COUNT / LYMPHOCYTE / MEAN CORPUSCULAR HEMOGLOBIN / MEAN CORPUSCULAR HEMOGLOBIN CONCENTRATION / MEAN CORPUSCULAR VOLUME / MONOCYTE / NEUTROPHIL / NUCLEATED RED BLOOD CELLS / PLATELET COUNT: tissue Blood; for ALANINE AMINOTRANSFERASE / ALKALINE PHOSPHATASE / ASPARTATE AMINOTRANSFERASE / BLOOD UREA NITROGEN / CARBON DIOXIDE / CHLORIDE / CHOLESTEROL / CREATINE PHOSPHOKINASE / CREATININE / GLUCOSE / LACTATE DEHYDROGENASE / LIPASE / PHOSPHORUS / POTASSIUM / SODIUM / TOTAL BILIRUBIN / TOTAL PROTEIN / URIC ACID: tissue Plasma
[1] = 22 mg/kg, 120 h, dose level Low, time 5 day
[2] = 320 mg/kg, 72 h, dose level High, time 3 day
[3] = 320 mg/kg, 120 h, dose level High, time 5 day

How did the “ABSOLUTE BASOPHIL” value [1] turn out when `COc1ccc(C(CN(C)C)C2(O)CCCCC2)cc1` (stereo unspecified) [VENLAFAXINE] was run?
Its value is 0 CELLS/uL.

And the “ABSOLUTE EOSINOPHIL” value [1]?
Its value is 0 CELLS/uL.

And the “ABSOLUTE LYMPHOCYTE” value [1]?
Its value is 7105.33 CELLS/uL.

And the “ABSOLUTE MONOCYTE” value [1]?
The value was 102.33 CELLS/uL.

What about the “ABSOLUTE SEGMENTED NEUTROPHIL” value [1] of the same compound?
Its value is 692.33 CELLS/uL.

And the BASOPHIL [1]?
Its BASOPHIL is 0%.

What about the EOSINOPHIL [1] of the same compound?
The EOSINOPHIL was 0%.

And the “ERYTHROCYTE COUNT” value [1]?
The value was 5.16 x10E6/uL.

And the HEMATOCRIT [1]?
The HEMATOCRIT was 32.4%.

What about the HEMOGLOBIN [1] of the same compound?
Its HEMOGLOBIN is 12.8 G/DL.

What about the “LEUKOCYTE COUNT” value [1] of the same compound?
The value was 7.9 x10E3/uL.

What about the LYMPHOCYTE [1] of the same compound?
Its LYMPHOCYTE is 90%.

What about the “MEAN CORPUSCULAR HEMOGLOBIN” value [1] of the same compound?
The value was 24.83 pg.

And the “MEAN CORPUSCULAR HEMOGLOBIN CONCENTRATION” value [1]?
Its value is 39.5 G/DL.

What about the “MEAN CORPUSCULAR VOLUME” value [1] of the same compound?
Its value is 62.73 fL.

And the MONOCYTE [1]?
The MONOCYTE was 1.33%.

What about the NEUTROPHIL [1] of the same compound?
The NEUTROPHIL was 8.67%.

And the “NUCLEATED RED BLOOD CELLS” value [1]?
Its value is 0 /100WBC.

And the “PLATELET COUNT” value [1]?
The value was 1242 x10E3/uL.

And the “ALANINE AMINOTRANSFERASE” value [1]?
Its value is 58.67 u/L.

What about the “ALKALINE PHOSPHATASE” value [1] of the same compound?
The value was 353 u/L.

What about the “ASPARTATE AMINOTRANSFERASE” value [1] of the same compound?
The value was 97.67 u/L.

And the “BLOOD UREA NITROGEN” value [1]?
The value was 15 mg/dL.

And the “CARBON DIOXIDE” value [1]?
The value was 29 mmol/L.

What about the CHLORIDE [1] of the same compound?
Its CHLORIDE is 106 MEQ/L.

What about the CHOLESTEROL [1] of the same compound?
The CHOLESTEROL was 81 mg/dL.

What about the “CREATINE PHOSPHOKINASE” value [1] of the same compound?
Its value is 155 u/L.

And the CREATININE [1]?
The CREATININE was 0.18 mg/dL.

And the GLUCOSE [1]?
The GLUCOSE was 132.33 mg/dL.

What about the “LACTATE DEHYDROGENASE” value [1] of the same compound?
Its value is 132 u/L.

What about the LIPASE [1] of the same compound?
The LIPASE was 9.67 u/L.

And the PHOSPHORUS [1]?
The PHOSPHORUS was 11.27 mg/dL.

And the POTASSIUM [1]?
Its POTASSIUM is 6.7 MEQ/L.

And the SODIUM [1]?
The SODIUM was 152.17 MEQ/L.

What about the “TOTAL BILIRUBIN” value [1] of the same compound?
The value was 0.17 mg/dL.

And the “TOTAL PROTEIN” value [1]?
Its value is 6.63 G/DL.

And the “URIC ACID” value [1]?
Its value is 1.17 mg/dL.

And the “ABSOLUTE BASOPHIL” value [2]?
The value was 0 CELLS/uL.

What about the “ABSOLUTE EOSINOPHIL” value [2] of the same compound?
The value was 0 CELLS/uL.

And the “ABSOLUTE LYMPHOCYTE” value [2]?
Its value is 16169.33 CELLS/uL.

What about the “ABSOLUTE MONOCYTE” value [2] of the same compound?
The value was 308 CELLS/uL.

What about the “ABSOLUTE SEGMENTED NEUTROPHIL” value [2] of the same compound?
The value was 1489.33 CELLS/uL.

And the BASOPHIL [2]?
The BASOPHIL was 0%.

What about the EOSINOPHIL [2] of the same compound?
The EOSINOPHIL was 0%.

And the “ERYTHROCYTE COUNT” value [2]?
The value was 5.59 x10E6/uL.

What about the HEMATOCRIT [2] of the same compound?
Its HEMATOCRIT is 35.1%.

What about the HEMOGLOBIN [2] of the same compound?
Its HEMOGLOBIN is 13.63 G/DL.

What about the “LEUKOCYTE COUNT” value [2] of the same compound?
Its value is 17.97 x10E3/uL.

What about the LYMPHOCYTE [2] of the same compound?
Its LYMPHOCYTE is 89.67%.

And the “MEAN CORPUSCULAR HEMOGLOBIN” value [2]?
The value was 24.4 pg.

What about the “MEAN CORPUSCULAR HEMOGLOBIN CONCENTRATION” value [2] of the same compound?
Its value is 38.83 G/DL.

And the “MEAN CORPUSCULAR VOLUME” value [2]?
The value was 62.7 fL.

And the MONOCYTE [2]?
The MONOCYTE was 1.67%.

And the NEUTROPHIL [2]?
Its NEUTROPHIL is 8.67%.

What about the “NUCLEATED RED BLOOD CELLS” value [2] of the same compound?
The value was 0 /100WBC.

What about the “PLATELET COUNT” value [2] of the same compound?
Its value is 1276.67 x10E3/uL.

What about the “ALANINE AMINOTRANSFERASE” value [2] of the same compound?
Its value is 53.67 u/L.

What about the “ALKALINE PHOSPHATASE” value [2] of the same compound?
Its value is 355.33 u/L.

What about the “ASPARTATE AMINOTRANSFERASE” value [2] of the same compound?
The value was 109 u/L.

And the “BLOOD UREA NITROGEN” value [2]?
The value was 14.33 mg/dL.

And the “CARBON DIOXIDE” value [2]?
The value was 22.33 mmol/L.

What about the CHLORIDE [2] of the same compound?
The CHLORIDE was 104 MEQ/L.

What about the CHOLESTEROL [2] of the same compound?
The CHOLESTEROL was 67.67 mg/dL.

What about the “CREATINE PHOSPHOKINASE” value [2] of the same compound?
Its value is 922.67 u/L.

What about the CREATININE [2] of the same compound?
The CREATININE was 0.19 mg/dL.

And the GLUCOSE [2]?
The GLUCOSE was 204 mg/dL.

What about the “LACTATE DEHYDROGENASE” value [2] of the same compound?
Its value is 452.67 u/L.

What about the LIPASE [2] of the same compound?
Its LIPASE is 10 u/L.

What about the PHOSPHORUS [2] of the same compound?
Its PHOSPHORUS is 13.37 mg/dL.

What about the POTASSIUM [2] of the same compound?
Its POTASSIUM is 5.82 MEQ/L.

And the SODIUM [2]?
The SODIUM was 147.33 MEQ/L.

What about the “TOTAL BILIRUBIN” value [2] of the same compound?
Its value is 0.17 mg/dL.

What about the “TOTAL PROTEIN” value [2] of the same compound?
The value was 5.87 G/DL.

What about the “URIC ACID” value [2] of the same compound?
The value was 1.9 mg/dL.

And the “ABSOLUTE BASOPHIL” value [3]?
The value was 0 CELLS/uL.

What about the “ABSOLUTE EOSINOPHIL” value [3] of the same compound?
The value was 0 CELLS/uL.

What about the “ABSOLUTE LYMPHOCYTE” value [3] of the same compound?
The value was 15088.33 CELLS/uL.

And the “ABSOLUTE MONOCYTE” value [3]?
The value was 152.33 CELLS/uL.

And the “ABSOLUTE SEGMENTED NEUTROPHIL” value [3]?
The value was 1792.67 CELLS/uL.

What about the BASOPHIL [3] of the same compound?
Its BASOPHIL is 0%.

What about the EOSINOPHIL [3] of the same compound?
The EOSINOPHIL was 0%.

What about the “ERYTHROCYTE COUNT” value [3] of the same compound?
The value was 5.64 x10E6/uL.

What about the HEMATOCRIT [3] of the same compound?
Its HEMATOCRIT is 34.3%.

And the HEMOGLOBIN [3]?
The HEMOGLOBIN was 13.5 G/DL.

What about the “LEUKOCYTE COUNT” value [3] of the same compound?
Its value is 17.03 x10E3/uL.

And the LYMPHOCYTE [3]?
The LYMPHOCYTE was 88.33%.

What about the “MEAN CORPUSCULAR HEMOGLOBIN” value [3] of the same compound?
Its value is 23.93 pg.

And the “MEAN CORPUSCULAR HEMOGLOBIN CONCENTRATION” value [3]?
The value was 39.37 G/DL.

What about the “MEAN CORPUSCULAR VOLUME” value [3] of the same compound?
Its value is 60.83 fL.

And the MONOCYTE [3]?
Its MONOCYTE is 1%.

What about the NEUTROPHIL [3] of the same compound?
The NEUTROPHIL was 10.67%.

What about the “NUCLEATED RED BLOOD CELLS” value [3] of the same compound?
Its value is 0 /100WBC.

And the “PLATELET COUNT” value [3]?
The value was 1189 x10E3/uL.

What about the “ALANINE AMINOTRANSFERASE” value [3] of the same compound?
Its value is 58.33 u/L.

What about the “ALKALINE PHOSPHATASE” value [3] of the same compound?
The value was 429.33 u/L.

What about the “ASPARTATE AMINOTRANSFERASE” value [3] of the same compound?
The value was 79.33 u/L.

What about the “BLOOD UREA NITROGEN” value [3] of the same compound?
Its value is 16.67 mg/dL.

What about the “CARBON DIOXIDE” value [3] of the same compound?
The value was 25 mmol/L.

And the CHLORIDE [3]?
Its CHLORIDE is 106 MEQ/L.

What about the CHOLESTEROL [3] of the same compound?
The CHOLESTEROL was 72.33 mg/dL.

What about the “CREATINE PHOSPHOKINASE” value [3] of the same compound?
The value was 133.33 u/L.

What about the CREATININE [3] of the same compound?
The CREATININE was 0.2 mg/dL.

And the GLUCOSE [3]?
Its GLUCOSE is 162.33 mg/dL.

And the “LACTATE DEHYDROGENASE” value [3]?
The value was 100 u/L.

What about the LIPASE [3] of the same compound?
Its LIPASE is 10 u/L.

What about the PHOSPHORUS [3] of the same compound?
Its PHOSPHORUS is 13.67 mg/dL.

And the POTASSIUM [3]?
The POTASSIUM was 6.24 MEQ/L.

And the SODIUM [3]?
Its SODIUM is 150.03 MEQ/L.

What about the “TOTAL BILIRUBIN” value [3] of the same compound?
Its value is 0.13 mg/dL.

What about the “TOTAL PROTEIN” value [3] of the same compound?
The value was 5.73 G/DL.

What about the “URIC ACID” value [3] of the same compound?
The value was 1.4 mg/dL.
